The structures appear in SMILES notation. pIC50: −log10 of the molar value.

The target in the first data set is T1, human CRF receptor (Homo sapiens, UniProt P34998).
T1 construct: expressed in transfected cells; host or cells: CHO cells (membrane fraction)
T1 sequence (P34998 24-415): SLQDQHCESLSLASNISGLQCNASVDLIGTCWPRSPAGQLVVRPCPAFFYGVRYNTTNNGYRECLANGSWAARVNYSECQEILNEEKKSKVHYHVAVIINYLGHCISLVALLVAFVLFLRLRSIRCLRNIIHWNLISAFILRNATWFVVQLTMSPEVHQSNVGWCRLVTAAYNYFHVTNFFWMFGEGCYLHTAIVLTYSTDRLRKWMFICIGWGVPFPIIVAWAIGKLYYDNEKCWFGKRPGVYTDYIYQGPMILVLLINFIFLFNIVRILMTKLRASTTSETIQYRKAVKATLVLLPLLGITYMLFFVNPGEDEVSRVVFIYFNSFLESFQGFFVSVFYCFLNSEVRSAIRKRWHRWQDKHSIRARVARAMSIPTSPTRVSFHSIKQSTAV
Nature of the data set: Measurement of CRF Binding Inhibitory Rate (receptor binding experiment with 125I-CRF). The settings on record: human CRF receptor expressing CHO cellular membrane fraction; 50 pM ovine 125I-CRF; 0.05 nM to 10 μM of compound; room temperature 1.5 hr; read-out: IC50 values (CRF binding inhibition). How it is done: Measurement of CRF Binding Inhibitory Rate
A receptor binding experiment was carried out using a human CRF receptor expressing CHO cellular membrane fraction and ovine CRF, [^125I]-tyr^0(^125I-CRF). 1000 nM of a test compound was incubated with 1 μg of human CRF receptor expressing CHO cellular membrane fraction and 50 pM of ^125I-CRF in a binding assay buffer (50 mM Tris-HCl, 5 mM EDTA, 10 mM MgCl2, 0.05% CHAPS, 0.1% BSA, 0.5 mM PMSF, 0.1 μg/mL pepstatin, 20 μg/mL leupeptin, pH 7.5). In addition, for measuring nonspecific binding (NSB), 0.1 μM unlabelled human Urocortin was incubated with 5 μg of human CRF receptor expressing CHO cellular membrane fraction and 50 pM of ^125I-CRF in a binding assay buffer. After a binding reaction was carried out at room temperature for 1.5 hr, the membrane was entrapped on a glass filter (UniFilter plate GF-C/Perkin Elmer) by suction filtration using a cell harvester (Perkin Elmer), and washed with ice-cooled 50 mM Tris-HCl (pH 7.5). After drying the glass filter, a liquid scintillation cocktail (Microscinti 0, Perkin Elmer) was added, and the radioactivity of ^125I-CRF remaining on a glass filter was measured using Topcount (Perkin Elmer).
(TB-SB)/(TB-NSB)×100 (SB: radioactivity when a compound is added, TB: maximum binding radioactivity, NSB: nonspecific binding radioactivity) were calculated to obtain binding inhibitory rates under the range of the presence from 0.05 nM to 10 μM of each compounds. The IC50 values were calculated by using GraphPad Prism software.
Consider `CCC(CC)c1ccc(OC)c2nc(Oc3ccc(OC(F)(F)F)cc3Cl)n(C)c12` [Example 1, 2-[2-Chloro-4-(trifluoromethoxy)phenoxy]-7-(1-ethylpropyl)-4-methoxy-1-methyl-1H-benzimidazole], for which the negative-log IC50 (pIC50) (in general, the negative decadic logarithm of the IC50, by convention in mol/L) is > 6.00.
`CCC(CC)c1ccc(OC)c2nc(Oc3ncc(Br)cc3C)n(C)c12` [Example 8, 2-[(5-Bromo-3-methylpyridin-2-yl)oxy]-7-(1-ethylpropyl)-4-methoxy-1-methyl-1H-benzimidazole]: the pIC50 is > 6.00.
Turning to `CCC(CC)c1ccc(OC)c2nc(Oc3nn(C)c(C)c3C)n(C)c12` [Example 14, 7-(1-Ethylpropyl)-4-methoxy-1-methyl-2-[(1,4,5-trimethyl-1H-pyrazol-3-yl)oxy]-1H-benzimidazole], the pIC50 is > 6.00.
Regarding `CCC(CC)c1ccc(Cl)c2nc(Oc3c(Cl)cc(Cl)cc3[Si](C)(C)C)n(C)c12` [Example 60, 4-Chloro-2-[2,4-dichloro-6-(trimethylsilyl)phenoxy]-7-(1-ethylpropyl)-1-methyl-1H-benzimidazole], the pIC50 is > 6.00.
Regarding `CCC(c1cccc2nc(Nc3c(C)cc(Cl)cc3OC)n(C)c12)N(C)C` (centres unmarked) [Example 62, N-(4-Chloro-2-methoxy-6-methylphenyl)-7-[1-(dimethylamino)propyl]-1-methyl-1H-benzimidazol-2-amine], the pIC50 was > 6.00.

Tested on in the next data set: not given
Assay: not given
Settings: not given
On to `CCC(CC)c1ccc(Cl)c2nc(Oc3c(C)cc([Si](C)(C)C)cc3Cl)n(C)c12`, for which the melting point (in general, the temperature, or range, at which the solid turns liquid) fell in the range of 146 to 148 °C.
As for `CCC(CC)c1ccc(OC)c2nc(Oc3ccc(Cl)cc3CN(C)C)n(C)c12` [Example 9, 1-(5-Chloro-2-{[7-(1-ethylpropyl)-4-methoxy-1-methyl-1H-benzimidazol-2-yl]oxy}phenyl)-N,N-dimethylmethanamine], the melting point was 121 to 123 °C.
On the same count and under the same terms, for `CCC(CC)c1ccc(OC)c2nc(Oc3ccc(C)nc3C(F)(F)F)n(C)c12` [Example 11, 7-(1-Ethylpropyl)-4-methoxy-1-methyl-2-{[6-methyl-2-(trifluoromethyl)pyridin-3-yl]oxy}-1H-benzimidazole] the value was 135 to 137 °C; for `CCC(CC)c1ccc(OC)c2nc(Nc3ccc(C(F)(F)F)cc3Cl)n(C)c12` [Example 16, N-[2-Chloro-4-(trifluoromethyl)phenyl]-7-(1-ethylpropyl)-4-methoxy-1-methyl-1H-benzimidazol-2-amine], 170 to 171 °C; for `CCC(CC)c1ccc(OC)c2nc(Nc3ccc(Cl)cc3C(F)(F)F)n(C)c12` [Example 17, N-[4-Chloro-2-(trifluoromethyl)phenyl]-7-(1-ethylpropyl)-4-methoxy-1-methyl-1H-benzimidazol-2-amine], 122 to 123 °C.
`CCC(CC)c1ccc(OC)c2nc(Nc3ccc(OC(F)(F)F)cc3Cl)n(C)c12` [Example 18, N-[2-Chloro-4-(trifluoromethoxy)phenyl]-7-(1-ethylpropyl)-4-methoxy-1-methyl-1H-benzimidazol-2-amine] registered a melting point of 175 to 177 °C.
`CCC(CC)c1ccc(OC)c2nc(Nc3ccc(Cl)cc3N(C)C)n(C)c12` [Example 21, 4-Chloro-N^1-[7-(1-ethylpropyl)-4-methoxy-1-methyl-1H-benzimidazol-2-yl]-N^2,N^2-dimethylbenzene-1,2-diamine] yielded a melting point of 47 to 49 °C.
`CCC(CC)c1ccc(Cl)c2nc(Oc3c(Cl)cc(Cl)cc3Br)n(C)c12` [Example 23, 2-(2-Bromo-4,6-dichlorophenoxy)-4-chloro-7-(1-ethylpropyl)-1-methyl-1H-benzimidazole] came in with a melting point of 165 to 167 °C.
The compound `CCC(CC)c1ccc(Cl)c2nc(Oc3c(Cl)cc(Cl)cc3NC)n(C)c12` [Example 28, 3,5-Dichloro-2-{[4-chloro-7-(1-ethylpropyl)-1-methyl-1H-benzimidazol-2-yl]oxy}-N-methylaniline] registered a melting point of 162 to 163 °C.
The same measure, in the same setting: for `CCC(CC)c1ccc(Cl)c2nc(Oc3c(C)cc(Br)cc3Cl)n(C)c12` [Example 33, 2-(4-Bromo-2-chloro-6-methylphenoxy)-4-chloro-7-(1-ethylpropyl)-1-methyl-1H-benzimidazole] the value was 163 to 164 °C.
Regarding `CCC(CC)c1ccc(Cl)c2nc(Oc3c(Cl)cc(OC(F)(F)F)cc3Br)n(C)c12` [Example 41, 2-[2-Bromo-6-chloro-4-(trifluoromethoxy)phenoxy]-4-chloro-7-(1-ethylpropyl)-1-methyl-1H-benzimidazole], the melting point was 149 to 151 °C.
With `CCC(CC)c1ccc(Cl)c2nc(Nc3c(C)cc([S+](C)[O-])cc3OC)n(C)c12` (centres unmarked) [Example 46, 4-Chloro-7-(1-ethylpropyl)-N-[2-methoxy-6-methyl-4-(methylsulfinyl)phenyl]-1-methyl-1H-benzimidazol-2-amine], the melting point fell in the range of 222 to 223 °C.
Still for that read-out and setting: for `CCC(CC)c1ccc(Cl)c2nc(Nc3c(C)cc(S(C)(=O)=O)cc3OC)n(C)c12` [Example 47, 4-Chloro-7-(1-ethylpropyl)-N-[2-methoxy-6-methyl-4-(methylsulfonyl)phenyl]-1-methyl-1H-benzimidazol-2-amine] the value was 234 to 236 °C; for `CCC(CC)c1ccc(Cl)c2nc(Nc3c(C)cc(C(N)=O)cc3OC)n(C)c12` [Example 48, 4-{[4-Chloro-7-(1-ethylpropyl)-1-methyl-1H-benzimidazol-2-yl]amino}-3-methoxy-5-methylbenzamide], 298 to 299 °C.
Consider `CCC(CC)c1ccc(Cl)c2nc(Nc3c(C)cc(Cl)cc3Br)n(C)c12` [Example 49, N-(2-Bromo-4-chloro-6-methylphenyl)-4-chloro-7-(1-ethylpropyl)-1-methyl-1H-benzimidazol-2-amine], for which the melting point fell in the range of 232 to 233 °C.
In turn, `CCC(CC)c1ccc(Cl)c2nc(Oc3cccc4c3CN(C)C4)n(C)c12` [Example 54, 4-Chloro-7-(1-ethylpropyl)-1-methyl-2-[(2-methyl-2,3-dihydro-1H-isoindol-4-yl)oxy]-1H-benzimidazole] registered a melting point of 99 to 100 °C.
As for `CCC(CC)c1ccc(Cl)c2nc(Nc3c(C)cc(-n4cccn4)cc3OC)n(C)c12` [Example 57, 4-Chloro-7-(1-ethylpropyl)-N-[2-methoxy-6-methyl-4-(1H-pyrazol-1-yl)phenyl]-1-methyl-1H-benzimidazol-2-amine], the melting point fell in the range of 237 to 239 °C.
The compound `CCC(CC)c1ccc(Cl)c2nc(Nc3c(C)cc(-n4ccc(C(F)(F)F)n4)cc3OC)n(C)c12` [Example 58, 4-Chloro-7-(1-ethylpropyl)-N-{2-methoxy-6-methyl-4-[3-(trifluoromethyl)-1H-pyrazol-1-yl]phenyl}-1-methyl-1H-benzimidazol-2-amine] yielded a melting point of 249 to 251 °C.
Same read-out and setting: the same measure for `CCc1ccc(C(CC)CC)c2c1nc(Oc1c(C)cc(Cl)cc1Cl)n2C` [Example 71, 2-(2,4-Dichloro-6-methylphenoxy)-4-ethyl-7-(1-ethylpropyl)-1-methyl-1H-benzimidazole]: 96 to 97 °C; for `CCOc1ccc(C(CC)CC)c2c1nc(Oc1ccc(Cl)cc1Br)n2C` [Example 72, 2-(2-Bromo-4-chlorophenoxy)-4-ethoxy-7-(1-ethylpropyl)-1-methyl-1H-benzimidazole]: 93 to 94 °C.
As for `CCOc1ccc(C(CC)CC)c2c1nc(Oc1c(C)cc(Cl)cc1Cl)n2C` [Example 73, 2-(2,4-Dichloro-6-methylphenoxy)-4-ethoxy-7-(1-ethylpropyl)-1-methyl-1H-benzimidazole], the melting point is 116 to 117 °C.
`CCC(CC)c1ccc(OC)c2nc(Oc3ccc(OC(F)(F)F)cc3-n3ccnc3)n(C)c12` [Example 82, 7-(1-Ethylpropyl)-2-[2-(1H-imidazol-1-yl)-4-(trifluoromethoxy)phenoxy]-4-methoxy-1-methyl-1H-benzimidazole] yielded a melting point of 168 to 169 °C.
For `CCC(CC(=O)O)c1ccc(Cl)c2nc(Oc3c(C)cc(Cl)cc3Cl)n(C)c12` (centres unmarked) [Example 99, 3-[4-Chloro-2-(2,4-dichloro-6-methylphenoxy)-1-methyl-1H-benzimidazol-7-yl]pentanoic acid], the melting point was in the range of 201 to 202 °C.
With `CCC(CC)c1ccc(Cl)c2nc(Nc3ccc(Cl)cc3Cl)n(CCO)c12` [Example 100, 2-[4-Chloro-2-[(2,4-dichlorophenyl)amino]-7-(1-ethylpropyl)-1H-benzimidazol-1-yl]ethanol], the melting point was 192 to 193 °C.

These data come from patent publication US20100056515A1, “BENZIMIDAZOLE COMPOUNDS” (priority 2006, published 2010).
